Reference: PubChem BioAssay (NCI)
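1) Cells in 96-well plates. 2) Compound, 48 h, 5 concentrations. 3) Linear interpolation between surrounding doses. 4) Unreached endpoint = highest concentration. Definition used: TGI = concentration required for complete inhibition of growth.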 Where a SMILES comes first, the peptide text is derived from it. [ ]: non-standard residue; d: D form. Ac5c = NC1(C(=O)O)CCCC1

Key:
Experiment in all cases: inhibition of tumour cell growth, NCI panel, 48 h
786-0 renal = test system: 786-0 renal
A498 renal = test system: A498 renal
A549 NSCLC = test system: A549 NSCLC
ACHN renal = test system: ACHN renal
BT-549 breast = test system: BT-549 breast
CAKI-1 renal = test system: CAKI-1 renal
CCRF-CEM leukemia = test system: CCRF-CEM leukemia
COLO 205 colon = test system: COLO 205 colon
DU-145 prostate = test system: DU-145 prostate
EKVX NSCLC = test system: EKVX NSCLC
HCC-2998 colon = test system: HCC-2998 colon
HCT-116 colon = test system: HCT-116 colon
HL-60(TB) leukemia = test system: HL-60(TB) leukemia
HOP-62 NSCLC = test system: HOP-62 NSCLC
HOP-92 NSCLC = test system: HOP-92 NSCLC
HS 578T breast = test system: HS 578T breast
HT29 colon = test system: HT29 colon
IGROV1 ovarian = test system: IGROV1 ovarian
K-562 leukemia = test system: K-562 leukemia
KM12 colon = test system: KM12 colon
LOX IMVI melanoma = test system: LOX IMVI melanoma
M14 melanoma = test system: M14 melanoma
MALME-3M melanoma = test system: MALME-3M melanoma
MCF7 breast = test system: MCF7 breast
MDA-MB-231 breast = test system: MDA-MB-231 breast
MDA-MB-435 = test system: MDA-MB-435
MDA-N = test system: MDA-N
MOLT-4 leukemia = test system: MOLT-4 leukemia
NCI-H226 lung = test system: NCI-H226 lung
NCI-H23 lung = test system: NCI-H23 lung
NCI-H460 lung = test system: NCI-H460 lung
NCI-H522 lung = test system: NCI-H522 lung
NCI/ADR-RES ovarian = test system: NCI/ADR-RES ovarian
OVCAR-3 ovarian = test system: OVCAR-3 ovarian
OVCAR-4 ovarian = test system: OVCAR-4 ovarian
OVCAR-5 ovarian = test system: OVCAR-5 ovarian
OVCAR-8 ovarian = test system: OVCAR-8 ovarian
PC-3 prostate = test system: PC-3 prostate
RPMI-8226 leukemia = test system: RPMI-8226 leukemia
RXF 393 renal = test system: RXF 393 renal
SF-268 CNS = test system: SF-268 CNS
SF-295 CNS = test system: SF-295 CNS
SF-539 CNS = test system: SF-539 CNS
SK-MEL-2 melanoma = test system: SK-MEL-2 melanoma
SK-MEL-28 melanoma = test system: SK-MEL-28 melanoma
SK-MEL-5 melanoma = test system: SK-MEL-5 melanoma
SK-OV-3 ovarian = test system: SK-OV-3 ovarian
SN12C renal = test system: SN12C renal
SNB-19 CNS = test system: SNB-19 CNS
SNB-75 CNS = test system: SNB-75 CNS
SR leukemia = test system: SR leukemia
SW-620 colon = test system: SW-620 colon
U251 CNS = test system: U251 CNS
UACC-257 melanoma = test system: UACC-257 melanoma
UACC-62 melanoma = test system: UACC-62 melanoma
UO-31 renal = test system: UO-31 renal
HCT-15 colon = test system: HCT-15 colon
T-47D breast = test system: T-47D breast
TK-10 renal = test system: TK-10 renal

Measured: TGI

CCOC(=O)/C(C#N)=C/c1ccc(SCc2ccco2)c([N+](=O)[O-])c1
> 100 µM: 786-0 renal | A498 renal | A549 NSCLC | ACHN renal | BT-549 breast | CAKI-1 renal | CCRF-CEM leukemia | COLO 205 colon | DU-145 prostate | EKVX NSCLC | HCC-2998 colon | HCT-116 colon | HL-60(TB) leukemia | HOP-62 NSCLC | HOP-92 NSCLC | HS 578T breast | HT29 colon | IGROV1 ovarian | K-562 leukemia | KM12 colon | LOX IMVI melanoma | M14 melanoma | MALME-3M melanoma | MCF7 breast | MDA-MB-231 breast | MDA-MB-435 | MDA-N | MOLT-4 leukemia | NCI-H226 lung | NCI-H23 lung | NCI-H460 lung | NCI-H522 lung | NCI/ADR-RES ovarian | OVCAR-3 ovarian | OVCAR-4 ovarian | OVCAR-5 ovarian | OVCAR-8 ovarian | PC-3 prostate | RPMI-8226 leukemia | RXF 393 renal | SF-268 CNS | SF-295 CNS | SF-539 CNS | SK-MEL-2 melanoma | SK-MEL-28 melanoma | SK-MEL-5 melanoma | SK-OV-3 ovarian | SN12C renal | SNB-19 CNS | SNB-75 CNS | SR leukemia | SW-620 colon | U251 CNS | UACC-257 melanoma | UACC-62 melanoma | UO-31 renal

COC(=O)C1(NC(=O)C(C)NC(=O)C(CCCCN)NC(=O)C(CC(C)C)NC(C)=O)CCCC1 (stereo unspecified) (Ac-LKA[Ac5c]-OMe; configuration not given here)
> 100 µM: 786-0 renal | A549 NSCLC | ACHN renal | CCRF-CEM leukemia | COLO 205 colon | EKVX NSCLC | HCC-2998 colon | HCT-116 colon | HCT-15 colon | HL-60(TB) leukemia | HOP-62 NSCLC | HS 578T breast | HT29 colon | IGROV1 ovarian | K-562 leukemia | KM12 colon | M14 melanoma | MCF7 breast | MDA-MB-231 breast | MDA-MB-435 | MDA-N | MOLT-4 leukemia | NCI-H460 lung | NCI-H522 lung | OVCAR-8 ovarian | PC-3 prostate | RPMI-8226 leukemia | SF-268 CNS | SF-295 CNS | SF-539 CNS | SK-MEL-28 melanoma | SK-MEL-5 melanoma | SK-OV-3 ovarian | SN12C renal | SNB-19 CNS | SNB-75 CNS | SR leukemia | SW-620 colon | T-47D breast | TK-10 renal | UACC-257 melanoma | UO-31 renal

C/C(=N\NC(=O)c1ccncc1)c1cccc(F)c1
> 10 µM: 786-0 renal | A498 renal | A549 NSCLC | ACHN renal | CAKI-1 renal | CCRF-CEM leukemia | COLO 205 colon | HCC-2998 colon | HCT-116 colon | HCT-15 colon | HL-60(TB) leukemia | HOP-62 NSCLC | HOP-92 NSCLC | IGROV1 ovarian | K-562 leukemia | KM12 colon | LOX IMVI melanoma | M14 melanoma | MALME-3M melanoma | MCF7 breast | MDA-N | MOLT-4 leukemia | NCI-H226 lung | NCI-H23 lung | NCI-H460 lung | NCI/ADR-RES ovarian | OVCAR-3 ovarian | OVCAR-5 ovarian | OVCAR-8 ovarian | PC-3 prostate | RPMI-8226 leukemia | RXF 393 renal | SF-268 CNS | SF-295 CNS | SF-539 CNS | SK-MEL-2 melanoma | SK-MEL-28 melanoma | SK-MEL-5 melanoma | SK-OV-3 ovarian | SN12C renal | SNB-19 CNS | SNB-75 CNS | SR leukemia | SW-620 colon | T-47D breast | TK-10 renal | U251 CNS | UO-31 renal
